# Source: patent US20230053119A1, “FUSION POLYPEPTIDE COMPRISING Fc REGION OF IMMUNOGLOBULIN AND GDF15” (LG CHEM, LTD., priority 2019, published 2023)
# Legend:
# Assay type in all cases: in vivo
# [1] = test system: DIO mouse model (C57BL/6J-DIO); assay: Feed intake in DIO mice after HIgG1-GDF(CRL) / IgG1-GDF(CRL) administration; details: 2.86 nmol/kg s.c. Daily Inj. for 5 days
# Procedure: (§1) The pharmacological effect of the fusion polypeptide produced and purified in Example 1 was tested in mice (C57BL/6J, 6 weeks, male, 100 mice; RaonBio).
# (§2) All the control material and test materials were administered subcutaneously. The administration route of the control material and test materials was selected as a subcutaneous route depending on the clinical intended route of administration.
# (§3) The dose of all the control material and test materials was 5 mL/kg, and the dose by individual was calculated on the basis of the recently measured weight, and they were administered subcutaneously once at the test start day using a disposable syringe (1 mL). […] For comparison, the control group in which the control material GDF15 was prepared, and for the comparison group in which GDF15 was administered, they were administered once a day for 5 days, 5 times in total, and all administrations were progressed from 9 AM.
# (§4) In addition, after administering the test materials to mice, the feed intake was measured every day, and the amount of feeding was measured using an electronic scale by each breeding box, and then the residual amount was measured to calculate the feed intake a day. Individuals who severely ate the feed were excluded from the measurement.
# [2] = test system: DIO mouse model (C57BL/6J-DIO); assay: Weight change in DIO mice after HIgG1-GDF(CRL) / IgG1-GDF(CRL) administration; details: for Body Weight, Mean: 2.86 nmol/kg s.c. Daily Inj. for 5 days
# Procedure: as §1, §2
# as §3, with “and they were administered subcutaneously once at the test start day using a disposable syringe” left out
# The weight of each mouse was measured at the day of the start of administration of the test materials (before administration), and then the weight was measured every day (measured by 9 days at maximum). The dose of the test materials was determined on the basis of the most recently measured weight.
# [3] = Pharmacodynamic (PK) test in SD rat, serum concentration by Human GDF15 ELISA; details: 2 mg/kg subcutaneous
# Procedure: For evaluation of pharmacodynamic characteristics when each polypeptide was subcutaneously administered to rats, polypeptide IgG4-GDF or IgG4-GDF(CRL) was subcutaneously administered in an amount of 2 mg/kg, respectively, to SD Rat (Koatech, male, 7 weeks, about 250g; n=3 each; test group), and at a fixed time, blood was collected about […] through a caudal vein. Blood collecting was progressed before administration of the fusion polypeptide, in 1, 2, 4, 8, 24, 48, 72, 96, 168, 240 and 336 hours after administration. As a control group for comparison of pharmacodynamic characteristics, GDF15 (R&D Systems) was subcutaneously administered in an amount of 2 mg/kg by the same method as above to prepare GDF15 administration group.
# After administering to SD Rat as above, blood collected by time-point was centrifuged to obtain serum, and ELISA was performed using Human GDF15 Immunoassay (SGD150, R&D Systems), to measure the concentration in serum over time for each polypeptide.
# [4] = test system: DIO mouse model (C57BL/6J-DIO); assay: Weight change in DIO mice after IgG4-GDF / IgG4-GDF(CRL) administration; details: for Body Weight, Mean: 3 nmol/kg s.c. Daily Inj.
# Procedure: as §1
# The test materials (IgG4-GDF ? GDF IgG4-GDF(CRL)) and control material
# (§5) Semaglutide (Bachem) were subcutaneously administered. The dose of all the control material and test materials was 5 mL/kg, and the dose by individual was calculated on the basis of the recently measured weight, […] (1 mL). […] For a comparison group in which Semaglutide was administered, Semaglutide were administered every day once a day. All administrations were progressed from 9 AM.
# The weight of each mouse was measured at the day of the start of administration of the test materials (before administration), and then the weight was measured every day (measured by 19 days at maximum). The dose of the test materials was determined on the basis of the most recently measured weight.
# [5] = test system: DIO mouse model (C57BL/6J-DIO); assay: Feed intake in DIO mice after IgG4-GDF / IgG4-GDF(CRL) administration; details: 3 nmol/kg s.c. Daily Inj.
# Procedure: as §1, §5, §4
substance,measurement,setting,value
"GDF15: control material GDF15 (R&D Systems), Growth/differentiation factor 15 not fused with Fc","Feed intake a day, Mean",[1]; Day 0,2.8
same,"Feed intake a day, Mean",[1]; Day 1,2.4
same,"Feed intake a day, Mean",[1]; Day 2,2.7
same,"Feed intake a day, Mean",[1]; Day 3,2.4
same,"Feed intake a day, Mean",[1]; Day 4,2.5
same,"Feed intake a day, Mean",[1]; Day 5,2.6
same,"Feed intake a day, Mean",[1]; Day 6,2.7
same,"Feed intake a day, Mean",[1]; Day 7,3.0
same,"Feed intake a day, Mean",[1]; Day 8,3.3
same,"Feed intake a day, Mean",[1]; Day 9,3.5
same,"Body Weight, Mean",[2]; Day 0,100 % of initial
same,"Body Weight, Mean",[2]; Day 1,99 % of initial
same,"Body Weight, Mean",[2]; Day 2,98 % of initial
same,"Body Weight, Mean",[2]; Day 3,97 % of initial
same,"Body Weight, Mean",[2]; Day 4,96 % of initial
same,"Body Weight, Mean",[2]; Day 5,95 % of initial
same,"Body Weight, Mean",[2]; Day 6,95 % of initial
same,"Body Weight, Mean",[2]; Day 7,95 % of initial
same,"Body Weight, Mean",[2]; Day 8,96 % of initial
same,"Body Weight, Mean",[2]; Day 9,97 % of initial
same,weight loss effect (in words),"[2]; daily administration, stopping administration from Day 5",weight loss effect disappeared from Day 6
same,AUCextp,[3]; [(AUCinf − AUClast)/AUCinf]*100,0.463%
same,AUClast,[3]; serum,4860 ng·h/mL
same,Cmax (maximum blood concentration),[3]; serum,443 ng/mL
same,Tmax (time to reach maximum blood concentration),[3]; serum,1 h
same,half-life,[3]; serum,19 h
same,t1/2 (elimination half-life),[3]; serum,19.0 h
same,AUCinf,"[3]; serum, extrapolated to infinite time",4880 ng·h/mL
Semaglutide [reference compound],"Body Weight, Mean",[4]; Day 0,100 % of initial
same,"Body Weight, Mean",[4]; Day 1,94 % of initial
same,"Body Weight, Mean",[4]; Day 2,91 % of initial
same,"Body Weight, Mean",[4]; Day 3,90 % of initial
same,"Body Weight, Mean",[4]; Day 4,87 % of initial
same,"Body Weight, Mean",[4]; Day 5,87 % of initial
same,"Body Weight, Mean",[4]; Day 6,85 % of initial
same,"Body Weight, Mean",[4]; Day 7,86 % of initial
same,"Body Weight, Mean",[4]; Day 8,83 % of initial
same,"Body Weight, Mean",[4]; Day 9,85 % of initial
same,"Body Weight, Mean",[4]; Day 10,84 % of initial
same,"Body Weight, Mean",[4]; Day 11,82 % of initial
same,"Body Weight, Mean",[4]; Day 12,81 % of initial
same,"Body Weight, Mean",[4]; Day 13,82 % of initial
same,"Body Weight, Mean",[4]; Day 14,81 % of initial
same,"Body Weight, Mean",[4]; Day 15,79 % of initial
same,"Body Weight, Mean",[4]; Day 16,79 % of initial
same,"Body Weight, Mean",[4]; Day 17,78 % of initial
same,"Body Weight, Mean",[4]; Day 18,77 % of initial
same,"Body Weight, Mean",[4]; Day 19,77 % of initial
same,weight loss (in words),[4]; daily administration,weight loss was consistent
same,"Feed intake a day, Mean",[5]; Day 0,3.7
same,"Feed intake a day, Mean",[5]; Day 1,2.1
same,"Feed intake a day, Mean",[5]; Day 2,3.3
same,"Feed intake a day, Mean",[5]; Day 3,2.8
same,"Feed intake a day, Mean",[5]; Day 4,2.3
same,"Feed intake a day, Mean",[5]; Day 5,2.9
same,"Feed intake a day, Mean",[5]; Day 6,2.7
same,"Feed intake a day, Mean",[5]; Day 7,3.2
same,"Feed intake a day, Mean",[5]; Day 8,2.4
same,"Feed intake a day, Mean",[5]; Day 9,3.7
same,"Feed intake a day, Mean",[5]; Day 10,2.7
same,"Feed intake a day, Mean",[5]; Day 11,2.5
same,"Feed intake a day, Mean",[5]; Day 12,2.4
same,"Feed intake a day, Mean",[5]; Day 13,3.0
same,"Feed intake a day, Mean",[5]; Day 14,2.5
same,"Feed intake a day, Mean",[5]; Day 15,2.1
same,"Feed intake a day, Mean",[5]; Day 16,2.5
same,"Feed intake a day, Mean",[5]; Day 17,2.0
same,"Feed intake a day, Mean",[5]; Day 18,2.2
same,"Feed intake a day, Mean",[5]; Day 19,3.7
